In article PMC6636782 (PLoS Neglected Tropical Diseases, 2019):
“Also recorded” adds a separate entry of the source. Residues, ends and D or L forms follow the SMILES beside them.

Columns and labels:
HLA-B*07:02 = biological target: T1, HLA-B*07:02 (Homo sapiens, UniProt P01889); experiment: cell-based
T1 construct: expressed in transfected cells; host or cells: RMA-S (TAP-deficient) cells transfected with HLA-B*07:02

[1] = tested on: CD4^+ T cell activation, HLA-DRB1*04:04 transgenic mice splenocytes; assay type: cell-based; settings: acute response to rVACV-CHIKV, listed as CHIKV E2_133-145
HLA-C*07:02 = HLA-C*07:02 (Homo sapiens, UniProt P10321)

CC[C@H](C)[C@H](NC(=O)[C@@H](NC(=O)[C@@H]1CCCN1C(=O)[C@H](CCCNC(=N)N)NC(=O)[C@@H]1CCCN1C(=O)[C@@H](NC(=O)[C@H](Cc1c[nH]c2ccccc12)NC(=O)[C@@H]1CCCN1C(=O)[C@@H](N)CCCNC(=N)N)[C@@H](C)O)[C@@H](C)O)C(=O)O (H-RPWTPRPTI-OH)
EC50 (HLA-B*07:02): 6 ± 6 µM

PPVIGREKFHSRP
recognition of peptide-pulsed cells by spleen cells [1]: specifically recognized; also recorded: presented and recognized as an epitope bound to DRB1*04:04

YEHVTVIPNTVGVPYK
detection in HLA-bound peptide pool (HLA-C*07:02): most likely a HLA-C*07:02 ligand
